This is an account of results in patent publication EP0234431A2, “5-Hydroxydihydrofusarubin, a process for its preparation and its use for the preparation of a medicament” (HOECHST JAPAN LIMITED, priority 1986, dated 1987).

Data set [1] has as its system Saccharomyces cereviciae ATCC 9763. Briefly: Antimicrobial test, agar plate-dilution method. Format: cell-based. Conditions: ATCC9763. The protocol: (§1) Minimum inhibitory concentrations (MIC) of 5-hydroxydihydrofusarubin (I) against bacteria and fungi were determined by the agar plate-dilution method.
The test system of data set [2] is Staphylococcus aureus FDA209PJC1. Briefly: Antimicrobial test, agar plate-dilution method. Format: cell-based. The protocol:
as §1

The test system of data set [3] is Bacillus subtilis ATCC 6633. As to the kind of experiment: Antimicrobial test, agar plate-dilution method. In kind it is cell-based. Conditions: ATCC6633. The protocol:
as §1

Data set [4] has as its system Streptococcus pneumoniae DP-1. Briefly: Antimicrobial test, agar plate-dilution method. In kind it is cell-based. Conditions: DP1. The protocol:
as §1

A further data set relates to Candida albicans C-a-30. Briefly: Antimicrobial test, agar plate-dilution method. In kind it is cell-based. Conditions: CA30. The protocol: as §1
Data set [5] relates to mouse leukemia L1210 cells. As to the kind of experiment: Antitumor test, growth inhibition of L1210 cells in suspension. Conditions: growth of mouse leukemia L1210 cells in suspension (1 x 10⁶/mouse). In kind it is cell-based. The protocol:
An antitumor test was carried out for 5-hydroxy dihydrofusarubin. Half value (IC₅₀) inhibiting growth of mouse leukemia L1210 cells in suspension (1 x 10⁶/mouse) was as follows: […]

Data set [6] in a line: Solubility (physicochemical properties). The protocol:
Physicochemical properties of 5-hydroxydihydrofusarubin (I) produced by the present invention are as follows: • (1) Appearance: Orange plates • (2) Molecular formula: C₁₅H₁₈O₇ • (3) Molecular weight: 310 • (4) Melting point: 192-193°C • (5) Optical rotation: -171.4 (in 0.06% acetone solution) • (6) Ultraviolet and visible absorption spectrum: in 95% ethanol solution: λ max (nm) (logε) 211(4.17), 245(4.08), 284(3.97), 359(3.88) • (7) Infrared absorption spectrum: The infrared absorption spectrum measured in potassium bromide tablet is shown in Fig. 1. • (8) ¹H-NMR: ¹H-NMR measured in deuteriumchloroform is shown in Fig. 2. Chemical shifts were assigned as shown below. [formula] • (9) ¹³C-NMR: ¹³C-NMR measured in deuteriumchloroform is shown in Fig. 3. Chemical shifts were assigned as shown below. [formula] • (10) Solubility: Soluble in chloroform, methylene chloride, ethyl acetate, acetone, ethanol or methanol. […] Solubility in water: Insoluble under acidic or neutral condition, and soluble under alkaline condition.

SMILES strings stand for the structures. In brackets after ≈: the same amount, converted by molar mass.

The MIC is the lowest concentration found to suppress growth. High values mean a need for much substance, low ones inhibition by little substance. The IC50 is the concentration that gives 50% inhibition. Higher therefore signals a need for much substance. `COc1cc(O)c2c(c1O)C(O)C1CC(C)(O)OCC1C2=O` (stereo not shown) [5-Hydroxydihydrofusarubin]: the MIC in data set [1] came out at 50 µg/mL (≈ 161 µM); in data set [2] it was 100 µg/mL (≈ 322 µM); in data set [3], 100 µg/mL (≈ 322 µM); in data set [4] it was 50 µg/mL (≈ 161 µM); with Candida albicans C-a-30, 100 µg/mL (≈ 322 µM). In addition, the IC50 in data set [5] worked out at 9.4 ± 0.9 µg/mL (≈ 30.3 µM). Further, the Solubility entry in data set [6] (in chloroform, methylene chloride, ethyl acetate, acetone, ethanol or methanol) is on record as “Soluble”; in data set [6] (in hexane or petroleum ether), “Sparingly soluble”. Further, the Solubility in water entry in data set [6] (under acidic or neutral condition) is reported as “Insoluble”; in data set [6] (under alkaline condition), “soluble”.
